# Test results reported in EPA's ToxRefDB 2.
# Legend:
# [1] = test system: mouse; conditions: Carcinogenicity, cd1, Oral, Feed, dose end: 80 week, group: systemic
# [2] = test system: rabbit; conditions: Prenatal developmental toxicity study, other, Oral, Gavage/Intubation, dose end: 19 GD
# [3] = test system: dog; conditions: Chronic toxicity, beagle, Oral, Capsule, dose end: 52 week, group: systemic
# [4] = test system: rat; conditions: Multigenerational reproductive toxicity study, sprague dawley, Oral, Feed, dose end: 2 generation
# [5] = test system: rabbit; conditions: Prenatal developmental toxicity study, new zealand white, Oral, Gavage/Intubation, dose end: 18 GD
# [6] = test system: rat; conditions: Prenatal developmental toxicity study, sprague dawley, Oral, Gavage/Intubation, dose end: 15 GD
# [7] = test system: dog; conditions: Subchronic oral toxicity in nonrodent, beagle, Capsule, dose end: 91 day, group: systemic
# [8] = test system: dog; conditions: Chronic toxicity; beagle; Oral; Capsule; dose end: 26 week; group: systemic; systemic / in life observation / clinical signs / defecation (diarrhea) + systemic / in life observation / clinical signs / mucoid stools + …
# [9] = test system: rat; conditions: Chronic toxicity; other; Oral; Feed; dose end: 24 month; group: systemic; systemic / organ weight / testes / nos + systemic / pathology gross / testes / reduced size + systemic / pathology microscopic / testes / …
# [10] = test system: rat; conditions: Subchronic oral toxicity in rodents, sprague dawley, Feed, dose end: 91 day, group: systemic
# [11] = test system: mouse; conditions: Combined chronic toxicity/carcinogenicity; cd1; Oral; [Not Specified]; dose end: 18 month; group: systemic; systemic / pathology microscopic / lung / adenoma + systemic / pathology microscopic / lung / carcinoma
# [12] = systemic / in life observation / body weight / body weight gain
# [13] = systemic / in life observation / body weight / body weight gain + systemic / in life observation / body weight / body weight + systemic / …
# [14] = group: developmental, developmental / developmental malformation / bone / [other]
# [15] = group: maternal, reproductive / reproductive performance / resorptions / resorptions + systemic / in life observation / clinical signs / defecation (diarrhea…
# [16] = systemic / in life observation / body weight / body weight gain + systemic / in life observation / body weight / body weight + systemic / in…
# [17] = group: parental, systemic / pathology gross / testes / degeneration + systemic / pathology microscopic / testes / aspermia + systemic / pathology microscopic…
# [18] = group: reproductive, reproductive / reproductive performance / fertility / fertility + reproductive / reproductive performance / mating / mating
# [19] = group: developmental, systemic / in life observation / body weight / fetal weight
# [20] = group: maternal, systemic / in life observation / clinical signs / anogenital staining + systemic / in life observation / clinical signs / defecation + …
# [21] = group: developmental, developmental / developmental malformation / bone / incomplete ossification + developmental / developmental malformation / general / [other…
# [22] = group: maternal, systemic / in life observation / body weight / body weight + systemic / in life observation / clinical signs / fat, discoloration + systemic…
# [23] = systemic / clinical chemistry / alanine aminotransferase (alt/sgpt) / alanine aminotransferase (alt/sgpt) + systemic / in life observation…
# [24] = systemic / in life observation / body weight / body weight
# [25] = systemic / organ weight / testes / nos + systemic / in life observation / body weight / body weight + systemic / in life observation / food …
structure (smiles),measurement,setting,value
COS(=O)(=O)[O-].Cn1c(-c2ccccc2)cc(-c2ccccc2)[n+]1C [Difenzoquat metilsulfate],LEL,[1]; [12],69.4 mg/kg/day
same,LOAEL,[1]; [12],69.4 mg/kg/day
same,NEL,[1]; [13],26.9 mg/kg/day
same,NOAEL,[1]; [13],26.9 mg/kg/day
same,LEL,[2]; [14],250 mg/kg/day
same,LOAEL,[2]; [14],250 mg/kg/day
same,NEL,[2]; [14],100 mg/kg/day
same,NOAEL,[2]; [14],100 mg/kg/day
same,LEL,[2]; [15],250 mg/kg/day
same,LOAEL,[2]; [15],250 mg/kg/day
same,NEL,[2]; [15],100 mg/kg/day
same,NOAEL,[2]; [15],100 mg/kg/day
same,LOAEL,[3]; [12],30 mg/kg/day
same,LEL,[3]; [16],30 mg/kg/day
same,NEL,[3]; [16],20 mg/kg/day
same,NOAEL,[3]; [16],20 mg/kg/day
CC1(C)CN=C(NN=C(C=Cc2ccc(C(F)(F)F)cc2)C=Cc2ccc(C(F)(F)F)cc2)NC1 [Hydramethylnon],LEL,[4]; [17],3.32 mg/kg/day
same,LOAEL,[4]; [17],3.32 mg/kg/day
same,NEL,[4]; [17],1.66 mg/kg/day
same,NOAEL,[4]; [17],1.66 mg/kg/day
same,LEL,[4]; [18],5.07 mg/kg/day
same,LOAEL,[4]; [18],> 5.07 mg/kg/day
same,NEL,[4]; [18],3.32 mg/kg/day
same,NOAEL,[4]; [18],≥ 5.07 mg/kg/day
same,LEL,[5]; [19],10 mg/kg/day
same,LOAEL,[5]; [19],10 mg/kg/day
same,NEL,[5]; [19],5 mg/kg/day
same,NOAEL,[5]; [19],5 mg/kg/day
same,LEL,[5]; [20],10 mg/kg/day
same,LOAEL,[5]; [20],10 mg/kg/day
same,NEL,[5]; [20],5 mg/kg/day
same,NOAEL,[5]; [20],5 mg/kg/day
same,LEL,[6]; [21],30 mg/kg/day
same,LOAEL,[6]; [21],30 mg/kg/day
same,NEL,[6]; [21],10 mg/kg/day
same,NOAEL,[6]; [21],10 mg/kg/day
same,LEL,"[6]; group: maternal, systemic / in life observation / body weight / body weight + systemic / in life observation / clinical signs / fat, discoloration",10 mg/kg/day
same,LOAEL,[6]; [22],30 mg/kg/day
same,NEL,[6]; [22],3 mg/kg/day
same,NOAEL,[6]; [22],10 mg/kg/day
same,LOAEL,[7]; [23],6 mg/kg/day
same,NOAEL,[7]; [23],3 mg/kg/day
same,LEL,[7]; [24],3 mg/kg/day
same,NEL,[7]; [24],< 3 mg/kg/day
same,LEL,[8],3 mg/kg/day
same,LOAEL,[8],3 mg/kg/day
same,NEL,[8],1 mg/kg/day
same,NOAEL,[8],1 mg/kg/day
same,LEL,[9],4.9 mg/kg/day
same,LOAEL,[9],4.9 mg/kg/day
same,NEL,[9],2.4 mg/kg/day
same,NOAEL,[9],2.4 mg/kg/day
same,LEL,[10]; systemic / organ weight / testes / nos,2.5 mg/kg/day
same,NEL,[10]; [25],1.25 mg/kg/day
same,NOAEL,[10]; [25],2.5 mg/kg/day
same,LOAEL,[10]; systemic / organ weight / testes / nos + systemic / pathology microscopic / testes / atrophy,5 mg/kg/day
same,LEL,[11],4.45 mg/kg/day
same,LOAEL,[11],4.45 mg/kg/day
same,NEL,[11],< 4.45 mg/kg/day
same,NOAEL,[11],< 4.45 mg/kg/day
